# According to PubChem BioAssay (NCI):
# Where “and” joins values, the source holds several entries; their conditions need not be identical. Equal entries are not always repeated.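 Cultured in 96-well plates, cells were exposed to test compound for 48 hours across five concentrations. GI50: concentration for 50% inhibition of growth. TGI is the concentration that stops growth completely.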
# How the values were obtained:
# Assay in all cases: NCI-60 cell line screen, 48 h
# U251 CNS = tested on: U251 CNS
# UACC-62 melanoma = tested on: UACC-62 melanoma
# MCF7 breast = tested on: MCF7 breast
# LOX IMVI melanoma = tested on: LOX IMVI melanoma
# T-47D breast = tested on: T-47D breast
# M14 melanoma = tested on: M14 melanoma
# BT-549 breast = tested on: BT-549 breast
# HS 578T breast = tested on: HS 578T breast
# PC-3 prostate = tested on: PC-3 prostate
# UO-31 renal = tested on: UO-31 renal
SMILES,TGI (U251 CNS),TGI (UACC-62 melanoma),TGI (MCF7 breast),TGI (LOX IMVI melanoma),TGI (T-47D breast),TGI (M14 melanoma),TGI (BT-549 breast),TGI (HS 578T breast),TGI (PC-3 prostate),TGI (UO-31 renal),GI50 (U251 CNS),GI50 (UACC-62 melanoma),GI50 (MCF7 breast),GI50 (LOX IMVI melanoma),GI50 (T-47D breast) [µM],GI50 (M14 melanoma),GI50 (BT-549 breast) [µM],GI50 (HS 578T breast) [µM],GI50 (PC-3 prostate) [µM],GI50 (UO-31 renal)
C[C@]12CCC3=NCCN3C1=CC[C@@H]1[C@@H]2CC[C@@]2(C)[C@H]1CC[C@]2(C)O,> 100 µM,76.4 µM,> 100 µM,> 100 µM,> 100 µM,> 100 µM,> 100 µM,74.7 µM,> 100 µM,> 100 µM,,,,,,,,,,
C#Cc1cccc(NC(=O)C2CCCN(C(=O)CCl)C2)c1 (configuration not stated),> 82.5 µM,> 82.5 µM,> 82.5 µM,28.7 µM,> 82.5 µM,> 82.5 µM,> 82.5 µM,> 82.5 µM,> 82.5 µM,26.4 µM,> 82.5 µM,> 82.5 µM,> 82.5 µM,14.4 µM,> 82.5,29.9 µM,38.6,> 82.5,> 82.5,12.9 µM
O=C(OC[C@@H]1CO1)c1cccc2c(=O)c3ccccc3[nH]c12,3.69 µM,0.56 µM,0.642 µM,0.48 µM,5.55 µM,1.65 µM,2.86 µM,3.78 µM,> 21.8 µM,,0.279 µM,0.229 µM,0.0469 µM,0.0807 µM,0.89,0.344 µM,0.338,0.499,0.381,
OCCCCC#Cc1ccccc1C#Cc1ccc(C(F)(F)F)cc1,28.6 µM,29.8 µM,85.6 µM,31.5 µM,33.9 µM,38.3 µM,35.1 µM,65.9 µM,35 µM,30.3 µM,14.8 µM,16 µM,33.3 µM,17.1 µM,15.9,17.1 µM,18,26.3,17.5,16.3 µM
CN(C)c1ccc(C2CC(C)(O)Oc3cc4c(cc32)OCO4)cc1 (configuration not stated),> 100 µM,> 100 µM,> 100 µM,> 100 µM,> 100 µM,> 100 µM,,> 100 µM,> 100 µM,93.1 µM,,,,,,,,,,
C=C(Cl)[C@@](Cl)(CBr)CC[C@@H](Br)C(C)(C)Cl,,24.5 µM and 3.84 µM,2.01 µM and 0.937 µM,39.4 µM and 34.3 µM,2.98 µM and 0.797 µM,40.9 µM and 28.8 µM,22.3 µM,0.741 µM and 2.1 µM,1.42 µM and 1.29 µM,1.85 µM and 2.01 µM,0.971 µM,4.53 µM,0.432 µM,,0.775,,,0.208,0.28,0.428 µM
COc1ccc(-c2cc(-c3ccccc3)nc(NCCNc3ccnc4cc(Cl)ccc34)n2)cc1,3.38 µM,3.52 µM,3.42 µM,3.26 µM,2.61 µM,,,3.78 µM,,2.93 µM,1.75 µM,1.84 µM,1.53 µM,1.55 µM,0.812,,,1.81,,1.42 µM
O=c1[nH]c2ccc([N+](=O)[O-])c(Cl)c2c2ccccc12,18 µM,15.5 µM,2.23 µM,> 100 µM,73.7 µM,> 100 µM,21.2 µM,> 100 µM,,21.2 µM,,,,,,,,,,
CCOc1ccc(Nc2nc(-c3c(C)nc4ncccn34)cs2)cc1,,12.8 µM,14.9 µM,17.2 µM,17.1 µM,13.6 µM,14.9 µM,23.3 µM,17.5 µM,18.6 µM,,< 0.01 µM,0.412 µM,0.0382 µM,1.04,0.017 µM,0.0268,0.0357,0.0185,0.0537 µM
N#CCC1(n2cc(-c3ncnc4[nH]ccc34)cn2)CN(C2CCN(C(=O)c3ccnc(C(F)(F)F)c3F)CC2)C1,> 100 µM,> 100 µM,,> 100 µM,> 100 µM,> 100 µM,> 100 µM,> 100 µM,> 100 µM,> 100 µM,> 100 µM,76.4 µM,,96.8 µM,51.7,> 100 µM,37.5,28.1,> 100,49.2 µM
NC(N)=N/N=C(/c1ccccc1)c1ccccc1F,13.3 µM,20.7 µM,13.3 µM,19.9 µM,41.3 µM,9.59 µM,23.6 µM,11.6 µM,> 57.7 µM,31.6 µM,2.64 µM,4.54 µM,0.327 µM,4.69 µM,12.6,1.7 µM,5.11,2.79,4.7,4.48 µM
Cc1nc2c(Br)cc(Br)cc2c(=O)n1-c1ccccc1NC1OCC(O)C(O)C1O (configuration not stated),> 100 µM,> 100 µM and 36.7 µM,> 100 µM,97.7 µM and > 51.3 µM,> 100 µM,46.7 µM and > 100 µM,> 100 µM,> 100 µM,> 100 µM,> 100 µM,38.3 µM and 16.1 µM,31.7 µM and 15.7 µM,28.4 µM and 3.7 µM,,,,,,,
COc1cc(OC)cc(-c2ccc(-c3ccc(C(=N)N)cn3)s2)c1,3.49 µM,3.54 µM,3.6 µM,3.2 µM,5.09 µM,3.47 µM,26.4 µM,3.98 µM,3.63 µM,3.31 µM,1.8 µM,1.85 µM,1.77 µM,1.7 µM,2.1,1.79 µM,10.5,1.86,1.88,1.65 µM
O=c1nc2[nH]c3c(-c4n[nH]c(=O)[nH]c4=O)cccc3c2n[nH]1,> 100 µM,> 100 µM,> 100 µM,> 100 µM,> 100 µM,> 100 µM,> 100 µM,> 100 µM,> 100 µM,> 100 µM,> 100 µM,> 100 µM,> 100 µM,> 100 µM,> 100,> 100 µM,> 100,> 100,> 100,> 100 µM
Clc1ccc2c(NCCCN3CCN(c4nc(N5CCOCC5)nc5ccccc45)CC3)ccnc2c1,5.15 µM,3.36 µM,,3.97 µM,5.09 µM,2.85 µM,3.08 µM,3.72 µM,,,2.15 µM,1.9 µM,,1.98 µM,2.32,1.39 µM,1.64,1.5,,
CC1OC(OC2C(O[C@H]3CC[C@@]4(C)C(=CC[C@H]5[C@@H]6C[C@@H]7O[C@]8(CC[C@@H](C)CO8)[C@@H](C)[C@@H]7[C@@]6(C)CC[C@@H]54)C3)OC(CO)C(OC3OC(CO)C(O)C3O)C2O)C(O)C(O)C1O (some centres not stated),1.44 µM,1.5 µM and 1.07 µM,1.52 µM and 2.3 µM,1.19 µM and 0.517 µM,2.68 µM,1.43 µM and 0.362 µM,1.84 µM and 2.66 µM,1.78 µM and 2.24 µM,1.48 µM and 1.78 µM,1.5 µM,0.325 µM,0.349 µM,1.11 µM,0.21 µM,1.39,0.205 µM,1.37,,0.533,
CCN(CC)CCOc1ccc2c(C)c(C(=O)OC)oc2c1C(=O)/C=C/c1ccc(OC)cc1,4.44 µM,7.75 µM,> 22.7 µM,2.81 µM,38.5 µM,> 48.7 µM,39.4 µM,51.4 µM,5.46 µM,,1.75 µM,2.24 µM,2.76 µM,1.34 µM,12.9,25.4 µM,20.6,24.1,2.01,1.45 µM
NC(=O)c1ncn(C2OC(CO)C(O)C2O)c1N (configuration not stated),> 100 µM,> 100 µM,> 100 µM,> 100 µM,> 100 µM,> 100 µM,> 100 µM,> 100 µM,> 100 µM,> 100 µM,> 100 µM,> 100 µM,> 100 µM,> 100 µM,> 100,> 100 µM,> 100,> 100,> 100,> 100 µM
C=C1CC/C=C(\C)CC[C@H](C(=C)C)[C@@H](O)/C=C(/CO)CCC1O (some centres not stated),> 100 µM,> 100 µM,> 100 µM,> 100 µM,> 100 µM,> 100 µM,> 100 µM,> 100 µM,> 100 µM,> 100 µM,85.2 µM,57.3 µM,21.4 µM,50.4 µM,45.7,71.7 µM,48.2,42.5,43.4,62.2 µM
O=C(Nc1ccc(C(F)(F)F)cc1[N+](=O)[O-])c1cccnc1,> 100 µM,90.8 µM,,> 100 µM,> 100 µM,> 100 µM,> 100 µM,> 100 µM,,> 100 µM,,,,,,,,,,
O=C(N/N=C/c1ccc(F)cc1)c1ccc(C(F)(F)F)nc1Nc1cccc(C(F)(F)F)c1,2.98 µM,5.77 µM,5.78 µM,2.17 µM,4.39 µM,10.1 µM,,6.87 µM,,6.69 µM,0.598 µM,1.66 µM,1.47 µM,0.522 µM,1.02,0.916 µM,,1.73,,2.14 µM
Cn1ccnc1C(=O)/C=C/c1ccc(C(=O)Nc2c(F)c(F)c(F)c(F)c2F)cc1,2.34 µM,5.17 µM,,2.87 µM,3.4 µM,3.7 µM,2.75 µM,6.44 µM,6.54 µM,2.79 µM,1.09 µM,2.08 µM,,1.5 µM,1.29,1.77 µM,1.43,2.1,1.62,1.47 µM
O=C(Oc1ccc2c(c1)CN(Cc1ccccc1)CO2)c1ccccc1,31.2 µM,30.5 µM,32.7 µM,37.1 µM,70 µM,32 µM,34.1 µM,61.5 µM,29.4 µM,31.8 µM,,,,,,,,,,
O=NN(CCCl)C(=O)NC1CCCCC1,51.2 µM and 103 µM and 173 µM,24.2 µM and 72 µM and 77.3 µM,117 µM,52 µM and 56.9 µM and 74.8 µM,166 µM,33 µM and 127 µM and 82.8 µM,81.7 µM,104 µM,136 µM,54.6 µM and 168 µM and 206 µM,15.8 µM and 64.7 µM,7.68 µM,,14.2 µM and 27.9 µM,,16.8 µM and 56.8 µM,,,,22 µM and 52.9 µM
COc1ccc(OCC(O)CN2CCN(c3ccc(Cl)cc3)CC2)cc1 (configuration not stated),> 100 µM,> 100 µM,> 100 µM,> 100 µM,> 100 µM,> 100 µM,> 100 µM,> 100 µM,> 100 µM,,79.3 µM,> 100 µM,> 100 µM,> 100 µM,> 100,> 100 µM,> 100,> 100,> 100,
Nc1ncnc2c1nc(Cl)n2C1OC(CO)C(O)C1O (configuration not stated),> 100 µM,> 100 µM,> 100 µM,> 100 µM,8.15 µM,> 100 µM,> 100 µM,> 100 µM,> 71.2 µM,> 100 µM,,,,,,,,,,
COc1ccc(Cc2nc3cc(OC)c(OC)cc3c(=O)[nH]2)cc1,> 100 µM,34.5 µM,> 47.5 µM,> 100 µM,> 100 µM,> 41.2 µM,29.7 µM,99.2 µM,> 100 µM,> 100 µM,10.5 µM,8.74 µM,5.32 µM,10.9 µM,21.5,4.13 µM,4.84,9.98,22,4.66 µM
COC(=O)c1ccc2[nH]c(O)c(C(=Nc3ccc(N(C)C(=O)CN4CCN(C)CC4)cc3)c3ccccc3)c2c1,,13.8 µM,2.42 µM,1.92 µM,33.4 µM,2.42 µM,3.28 µM,4.57 µM,25.5 µM,3.86 µM,,4.02 µM,0.603 µM,0.552 µM,11.9,0.729 µM,1.65,0.266,1.04,1.24 µM
CCCCC[C@@H](C/C=C/CCC(=O)NC/C(=C/Cl)[C@H]1C(=O)C(C)(C)C(=O)[C@@H](C)[C@@]1(C)O)OC,37.1 µM,29.1 µM,38.8 µM,38 µM,34.6 µM,31.2 µM,32.7 µM,,43.5 µM,28.8 µM,20.1 µM,15.6 µM,19.2 µM,18.8 µM,15.4,16.9 µM,17.9,,19.6,15.4 µM
